Source: the supplement of paper PMC7023306
± gives the uncertainty stated by the source.

Assay: TIMS collision cross section in N2 (TIMS CCS N2); higher = larger gas-phase ion size
Conditions: drift gas: N2 (99.4% N2, 0.6% O2), calibration: Stow et al. 2017 values for Agilent ESI-L Low Concentration Tune Mix, ionization: negative ESI
Experimental: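 Authentic plant natural product standards (10-50 ppm in 80% methanol) were analysed by UHPLC (BEH C18, 60 °C) coupled to a Bruker timsTOF Pro in negative ESI with N2 drift gas. TIMS collision cross sections were computed from mobility peak apices after calibration with Agilent Tune Mix using Stow et al. reference values. Values are the average of triplicate runs on different days, reported per annotated ion species (deprotonated ion, adducts, dimer, oxidized ion).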

SMILES	TIMS collision cross section in N2 (ion species: [2M-H]-)	TIMS collision cross section in N2 (ion species: [M-H]-)	further results
COc1ccccc1-c1cc(=O)c2c(O)cc(O)cc2o1 [5,7-Dihydroxy-2'-methoxyflavone]	238.49 ± 0.23 Å²	167.34 ± 0.07 Å²	–
COc1ccc(-c2cc(=O)c3c(O)cc(O)cc3o2)cc1 [5,7-Dihydroxy-4'-methoxyflavone]	–	170.87 ± 0.1 Å²	TIMS collision cross section in N2 (ion species: [M-3H]-): 165.19 ± 0.13 Å²
COc1ccc(C2CC(=O)c3c(O)cccc3O2)cc1OC (stereo not given) [5-Hydroxy-3',4'-dimethoxyflavanone]	–	174.21 ± 0.21 Å²	TIMS collision cross section in N2 (ion species: [M-H+Na+HCO2H]-): 187.65 ± 0.61 Å²
O=c1cc(-c2ccccc2)oc2cccc(O)c12 [5-Hydroxyflavone]	–	156 ± 0.14 Å²	TIMS collision cross section in N2 (ion species: [M-H+Na+HCO2H]-): 173.98 ± 0.31 Å²
O=C1CC(c2ccc(O)c(O)c2)Oc2cc(O)c(O)cc21 (stereo not given) [6,7,3',4'-Tetrahydroxyflavanone]	–	167.53 ± 0.27 Å²	TIMS collision cross section in N2 (ion species: [M-3H]-): 161.92 ± 0.36 Å²
CC(C)=CCC/C(C)=C/Cc1c(O)cc2c(c1O)C(=O)C[C@@H](c1ccc(O)cc1)O2 [6-geranylnaringenin]	275.87 ± 0.17 Å²	204.76 ± 0.16 Å²	–
CC(C)=CCc1c(O)cc2c(c1O)C(=O)C[C@@H](c1ccc(O)cc1)O2 [6-prenylnaringenin]	235.03 ± 0.42 Å²	183.64 ± 0.61 Å²	–
O=c1cc(-c2cc(O)c(O)c(O)c2)oc2cc(O)ccc12 [7,3',4',5'-Tetrahydroxyflavone]	–	161.92 ± 0.042 Å²	–
COc1ccc(-c2oc3cc(OC)ccc3c(=O)c2O)cc1 [7,4'-Dimethoxy-3-hydroxyflavone]	–	–	TIMS collision cross section in N2 (ion species: [M-H+Na+HCO2H]-): 193.67 ± 0.15 Å²
O=c1cc(-c2ccc(O)cc2)oc2cc(O)ccc12 [7,4'-dihydroxyflavone]	221.31 ± 0.038 Å²	157.01 ± 0.16 Å²	–
COc1cccc(-c2cc(=O)c3ccc(O)cc3o2)c1 [7-Hydroxy-3'-methoxyflavone]	229.62 ± 0.17 Å²	165.22 ± 0.11 Å²	–
COc1ccc(-c2cc(=O)c3ccc(O)cc3o2)cc1 [7-Hydroxy-4'-methoxyflavone]	231.78 ± 0.34 Å²	165.03 ± 0.085 Å²	–
COc1ccc2c(=O)cc(-c3ccc(O)cc3)oc2c1 [7-Methoxy-4'-hydroxyflavone]	257.82 ± 0.34 Å²	164.31 ± 0.31 Å²	–
COc1ccc(-c2cc3ccc(O)cc3oc2=O)cc1 [7-hydroxy 3(4- methoxyphenyl) coumarin]	–	162.79 ± 0.25 Å²	–
CC(C)=CCc1c(O)cc(O)c2c1O[C@H](c1ccc(O)cc1)CC2=O [8-prenylnaringenin]	–	183.54 ± 0.32 Å²	–
O=c1cc(-c2ccc(O)cc2)oc2cc(OC3O[C@H](CO)[C@@H](O)[C@H](O)[C@H]3O)cc(O)c12 (stereo not given in full) [Apigenin-7-O-glucoside (apigetrin)]	–	206.74 ± 0.14 Å²	TIMS collision cross section in N2 (ion species: [M-H+Na+HCO2H]-): 228.65 ± 0.32 Å²
O=c1cc(-c2ccc(O)cc2)oc2cc(O)cc(O)c12 [Apigenin]	238.72 ± 0.12 Å²	157.47 ± 0.15 Å²	–
O=C(CCc1ccc(O)c(O)c1)c1c(O)cc(O)c([C@@H]2O[C@H](CO)[C@@H](O)[C@H](O)[C@H]2O)c1O [Aspalathin]	274.03 ± 0.72 Å²	194.21 ± 0.22 Å²	TIMS collision cross section in N2 (ion species: [M-3H]-): 195.17 ± 0.1 Å²
O=c1cc(-c2ccccc2)oc2cc(O)c(O)c(O)c12 [Baicalein]	–	–	TIMS collision cross section in N2 (ion species: [M-3H]-): 158.42 ± 0.15 Å²
COc1ccc(-c2coc3cc(O)cc(O)c3c2=O)cc1 [Biochanin A (5,7-Dihydroxy-4'-methoxyisoflavone)]	261.04 ± 0.32 Å²	166.11 ± 0.071 Å²	–
CC1(C)CC[C@]2(C)CC[C@]3(C)C(=CC[C@@H]4[C@@]5(C)CC[C@@H](O)[C@](C)(C(=O)O)[C@@H]5CC[C@]43C)[C@@H]2C1 [Boswellic acid, alpha-]	–	222.31 ± 0.39 Å²	TIMS collision cross section in N2 (ion species: [M-H+Na+HCO2H]-): 239.79 ± 0.21 Å²
Oc1cc(O)c2c(c1)O[C@@H](c1ccc(O)c(O)c1)[C@H](O)C2 [Catechin]	–	156.67 ± 0.19 Å²	–
CC1(C)CC[C@]2(C(=O)O)CC[C@]3(C)C(=CC[C@@H]4[C@@]5(C)CC[C@H](O[C@@H]6OC[C@H](O)[C@H](O)[C@H]6O[C@@H]6O[C@H](CO)[C@@H](O)[C@H](O)[C@H]6O)[C@@](C)(CO)[C@@H]5CC[C@]43C)[C@@H]2C1 [Cauloside C]	–	–	TIMS collision cross section in N2 (ion species: [M-H+HCO2H]-): 289.87 ± 0.76 Å²
O=C(/C=C/c1ccc(O)c(O)c1)O[C@@H]1C[C@](O)(C(=O)O)C[C@@H](O)[C@H]1O [Chlorogenic acid]	–	–	TIMS collision cross section in N2 (ion species: [M-3H]-): 187.02 ± 0.44 Å²
O=c1cc(-c2ccccc2)oc2cc(O)cc(O)c12 [Chrysin]	230.51 ± 0.25 Å²	156.14 ± 0.1 Å²	–
CC(C)=CCC1=C(O)C(O)(CC=C(C)C)C(=O)C(C(=O)C(C)C)=C1O (stereo not given) [Cohumulone]	–	184.13 ± 0.17 Å²	–
Oc1ccc2c(c1)O[C@H]1c3ccc(O)cc3OC[C@@H]21 [Demethyl medicarpin]	–	161.89 ± 0.17 Å²	–
CC(C)=CCc1c(O)cc(O)c(C(=O)/C=C/c2ccc(O)cc2)c1O [Desmethylxanthohumol]	–	183.45 ± 0.15 Å²	–
COc1ccc(-c2cc(=O)c3c(O)cc(O)cc3o2)cc1O [Diosmetin]	–	171.28 ± 0.2 Å²	–

The next lines start with results.

TIMS collision cross section in N2 (ion species: [2M-H]-)	TIMS collision cross section in N2 (ion species: [M-H]-)	SMILES	further results
238.03 ± 0.5 Å²	175.95 ± 0.1 Å²	COc1ccc(C2CC(=O)c3c(O)cc(O)cc3O2)cc1OC (stereo not given) [5,7-dihydroxy-3',4'-dimethoxy-flavanone]	TIMS collision cross section in N2 (ion species: [M-H+Na+HCO2H]-): 195.74 ± 0.19 Å²
–	158.38 ± 0.01 Å²	O=C1CC(c2ccccc2)Oc2c(O)ccc(O)c21 (stereo not given) [5,8-Dihydroxyflavanone]	–
–	141.26 ± 0.044 Å²	COc1cc(/C=C/C(=O)O)cc(O)c1O [5-Hydroxyferulic acid]	–
249.43 ± 0.37 Å²	159.49 ± 0.16 Å²	O=c1c(-c2ccc(O)cc2)coc2cc(O)c(O)cc12 [6,7,4'-Trihydroxyisoflavone]	–
–	206.73 ± 0.66 Å²	CC(C)=CCc1c(O)c(CC=C(C)C)c2c(c1O)C(=O)C[C@@H](c1ccc(O)cc1)O2 [6,8-diprenylnaringenin]	–
244.54 ± 0.11 Å²	156.92 ± 0.15 Å²	O=C1CC(c2ccccc2)Oc2ccc(O)cc21 (stereo not given) [6-Hydroxyflavanone]	–
239.79 ± 0.056 Å²	155.92 ± 0.15 Å²	O=c1cc(-c2ccccc2)oc2ccc(O)cc12 [6-Hydroxyflavone]	–
–	162.61 ± 0.21 Å²	O=c1c(-c2ccc(O)c(O)c2)coc2cc(O)ccc12 [7,3',4'-TRIHYDROXYISOFLAVONE]	TIMS collision cross section in N2 (ion species: [M-3H]-): 156.67 ± 0.24 Å²
–	175.55 ± 0.29 Å²	COc1ccc(C2CC(=O)c3c(O)cc(OC)cc3O2)cc1 (stereo not given) [7,4'-Dimethoxy-5-hydroxyflavanone]	TIMS collision cross section in N2 (ion species: [M-H+Na+HCO2H]-): 194.46 ± 0.47 Å²
228.17 ± 0.39 Å²	153.67 ± 0.056 Å²	O=c1cc(-c2ccccc2)oc2cc(O)ccc12 [7-Hydroxyflavone]	–
–	163.71 ± 0.025 Å²	COc1ccc2c(c1)OC(c1ccccc1)CC2=O (stereo not given) [7-Methoxyflavanone]	–
–	165.83 ± 0.053 Å²	COc1ccc(O)c2c1C(=O)CC(c1ccccc1)O2 (stereo not given) [8-Hydroxy-5-methoxyflavanone]	–
–	218.58 ± 0.23 Å²	COc1cc2oc(-c3ccc(O)cc3O)c(CC=C(C)C)c(=O)c2c(O)c1/C=C/C(C)C [Artocarpin]	TIMS collision cross section in N2 (ion species: [M-H+Na+HCO2H]-): 229.53 ± 0.64 Å²
–	222.65 ± 0.35 Å²	C[C@H]1[C@H](C)CC[C@]2(C(=O)O)CC[C@]3(C)C(=CC[C@@H]4[C@@]5(C)C[C@@H](O)[C@H](O)[C@@](C)(CO)[C@@H]5CC[C@]43C)[C@H]12 [Asiatic acid]	–
–	220.34 ± 0.4 Å²	C[C@H]1[C@H](C)CC[C@]2(C(=O)O)CC[C@]3(C)C(=CC[C@@H]4[C@@]5(C)C[C@@H](O)[C@H](O)C(C)(C)[C@@H]5CC[C@]43C)[C@H]12 [Corosolic acid]	TIMS collision cross section in N2 (ion species: [M-H+Na+HCO2H]-): 231.55 ± 0.4 Å²
–	190.83 ± 0.34 Å²	COc1cc(O)c2c(=O)cc(-c3cc(OC)c(OC)c(OC)c3)oc2c1 [Corymbosin]	–
245.05 ± 0.43 Å²	155.75 ± 0.042 Å²	O=c1oc2cc(O)ccc2c2oc3cc(O)ccc3c12 [Coumestrol]	–
246.33 ± 0.2 Å²	157.59 ± 0.0071 Å²	O=c1c(-c2ccc(O)cc2)coc2cc(O)ccc12 [Daidzein]	–
248.74 ± 0.038 Å²	164.03 ± 0.16 Å²	O=C1c2c(O)cc(O)cc2O[C@H](c2ccc(O)cc2)[C@H]1O [Dihydrokaempferol]	TIMS collision cross section in N2 (ion species: [M-H+Na+HCO2H]-): 186.44 ± 0.2 Å²
